In patent US20100016441A1, “BIOCIDAL COMPOSITION AND METHOD” (priority 2008, published 2010):

Legend:
[1] = system: pool of microorganisms; assay: Rapid decontamination and long term preservation challenge test in UCAR Latex 626 (pH 8.7); format: cell-based; details: for active concentration, used alone, achieving 4 log10 reduction in bacterial concentration: UCAR Latex 626, pH 8.7, 1 h after initial inoculum; for concentration, used alone, achieving decontamination: 24 h after second inoculation at seven days
Method: (§1) The antimicrobial profiles of DBNPA, BNPD, and a combination of DBNPA-BNPD (3:1 w/w) are tested in a commercial water-based latex (UCAR Latex 626 available from The Dow Chemical Company), and a generic mineral slurry sample. Commercial latexes vary in pH values from slightly acidic to basic. For the purpose of this study, a latex with a basic pH (8.7) is selected, as it is known that both BNPD and DBNPA have limited chemical stability at alkaline pH. Mineral slurries vary in pH, but most often they are alkaline. For the purpose of this study, a titanium dioxide slurry with pH of 8.35 was selected.
(§2) Both the latex and the mineral slurry are free of contamination prior to testing. At time zero, the test matrices are inoculated with a pool of microorganisms (listed below) to a final concentration of 5×10^6 CFU/ml. Aliquots of the contaminated samples are weighed into a series of sterile containers followed by addition of the appropriate volume of biocide required to achieve the desired concentration. A control sample, lacking biocide, is included in each evaluation. Following biocide addition, samples are thoroughly mixed and aliquots are removed and streaked to tryptic soy agar plates, at various time points, for the enumeration of surviving microorganisms. All agar plates are incubated at 30° C. for 72 hours prior to assessment of viable bacteria. In all the ensuing results, a minimum of 4 log10 reduction in microorganism concentration, as compared to the control sample, is considered significant efficacy.
(§3) Microorganisms: Twenty-four hour tryptic soy broth cultures are combined in equal parts for formulation inoculation at a final concentration of 5×10^6 CFU/ml. Organisms utilized: Pseudomonas aeruginosa (ATCC#15442), Pseudomonas aeruginosa (ATCC#10145), Staphylococcus aureus (ATCC#6538), Burkholderia cepacia (ATCC#25416), Pseudomonas fluorescens B (environmental isolate), Pseudomonas oleovorans (environmental isolate), Enterococcus sulfureus (environmental isolate). To assess the rapid decontamination efficacy of the biocides, aliquots are removed at 60 minutes following the initial inoculation, and streaked on tryptic soy agar plates for the enumeration of surviving microorganisms. The samples are stored at ambient conditions for three or seven days, respectively, at which point a second inoculation is administered, to test the long term preservation efficacy of the biocides. Aliquots are removed at 4 h and/or 24 h or 48 h following the second inoculation, and streaked on tryptic soy agar plates, for the enumeration of surviving microorganisms.
(§4) Synergy: The synergy indexes reported here are measured and calculated using Formula 1. In this approach, a synergy index (SI) of 1 indicates additivity. If the synergy index is less than 1, synergy has occurred, while a synergy index greater than 1 indicates antagonism.
(§5) Synergy Index=CA/Ca+CB/Cb (1)
Ca=concentration of antimicrobial A, alone, producing a predetermined end-point
Cb=concentration of antimicrobial B, alone, producing a predetermined end-point
CA and CB=the concentrations of antimicrobials A and B, respectively, together in a mixture, that produce a predetermined end-point

[2] = system: pool of microorganisms; assay: Rapid decontamination and long term preservation challenge test in titanium dioxide mineral slurry (pH 8.35); format: cell-based; details: for concentration, used alone, obtaining 4 log10 reduction in microorganisms: 48 hours after second inoculation at seven days; for effective concentration, used alone (4 log10 reduction): pH 8.35, 30 min after initial inoculation
Method: as §1, §2
as §3, with “To assess the rapid decontamination efficacy of the biocides, aliquots are removed at 60 minutes following the initial inoculation, and streaked on tryptic soy agar plates for the enumeration of surviving microorganisms.” left out
as §4, §5
Ca=concentration of antimicrobial A, alone, producing a predetermined end-point […]

[3] = going from pH 6 to pH 8.9; cited from earlier work

Row | Structure (SMILES) | active concentration, used alone, achieving 4 log10 reduction in bacterial concentration [1] | concentration, used alone, achieving decontamination ([1]; UCAR Latex 626) | concentration, used alone, obtaining 4 log10 reduction in microorganisms [2] | effective concentration, used alone (4 log10 reduction) [2] | factor of increase of rate of disappearance [3] | effective active concentration (4 log10 reduction) ([1]; UCAR Latex 626, 24 h after second inoculation at three days)
1 | N#CC(Br)(Br)C(N)=O [DBNPA, 2,2-dibromo-3-nitrilopropionamide] | 140 ppm | did not achieve decontamination | 400 ppm | 23.4 ppm | about 450 | –
2 | O=[N+]([O-])C(Br)(CO)CO [BNPD, 2-bromo-2-nitro-1,3-propanediol] | > 600 ppm | 95.7 ppm | 35.1 ppm | > 600 ppm | – | 95.7 ppm
